According to the CheMixHub viscosity set:

Test: xn = mol fraction of the nth substance listed

CCCCC(CC)COP(=O)(O)OCC(CC)CCCC (stereo not given) + CC(=O)O
303.15 K, 101 kPa
Conditions | viscosity [mPa·s]
x1 = 0.0796 | 1.574
x1 = 0.1382 | 2.292
x1 = 0.2186 | 3.386
x1 = 0.3103 | 4.872
x1 = 0.3968 | 6.604
x1 = 0.4788 | 8.198
x1 = 0.5297 | 9.118
x1 = 0.6234 | 11.09
x1 = 0.6891 | 12.58
x1 = 0.7384 | 13.67
x1 = 0.8068 | 15.2
x1 = 0.8905 | 16.88
x1 = 0.9592 | 18.49

Cc1cccc(O)c1 + CC(=O)O
viscosity [mPa·s], 101 kPa
Conditions | x2 = 0.1684 | x2 = 0.313 | x2 = 0.4385 | x2 = 0.5485 | x2 = 0.6457 | x2 = 0.7321 | x2 = 0.8096 | x2 = 0.8794 | x2 = 0.9425
298.15 K | 8.835 | 6.522 | 5.086 | 4.131 | 3.438 | 2.895 | 2.425 | 1.996 | 1.602
308.15 K | 5.453 | 4.462 | 3.486 | 3.298 | 2.87 | 2.483 | 2.143 | 1.811 | 1.437
318.15 K | 4.444 | 3.818 | 3.302 | 2.942 | 2.618 | 2.31 | 1.945 | 1.625 | 1.22

Cc1cccc(O)c1 + CC(=O)c1ccccc1
303.15 K, 101 kPa
Conditions | viscosity [mPa·s]
x2 = 0.139 | 8.438
x2 = 0.1802 | 8.063
x2 = 0.27 | 7.268
x2 = 0.4388 | 5.843
x2 = 0.4644 | 5.63
x2 = 0.5506 | 4.927
x2 = 0.7407 | 3.39
x2 = 0.8321 | 2.684
x2 = 0.9266 | 2

C[N+](=O)[O-] + CC(C)(C)O
viscosity [mPa·s], 101.33 kPa
Conditions | 298.15 K | 303.15 K | 313.15 K
x2 = 0.05 | 0.609 | 0.569 | 0.511
x2 = 0.1002 | 0.611 | 0.567 | 0.506
x2 = 0.1502 | 0.642 | 0.573 | 0.508
x2 = 0.2 | 0.644 | 0.587 | 0.517
x2 = 0.2499 | 0.674 | 0.609 | 0.531
x2 = 0.3 | 0.749 | 0.638 | 0.549
x2 = 0.3503 | 0.793 | 0.672 | 0.573
x2 = 0.4 | 0.87 | 0.714 | 0.601
x2 = 0.4501 | 0.894 | 0.761 | 0.633
x2 = 0.5001 | 0.972 | 0.819 | 0.671
x2 = 0.55 | 1.072 | 0.886 | 0.717
x2 = 0.6001 | 1.154 | 0.962 | 0.811
x2 = 0.6499 | 1.219 | 1.057 | 0.829
x2 = 0.7 | 1.361 | 1.174 | 0.885
x2 = 0.75 | 1.557 | 1.32 | 0.966
x2 = 0.8 | 1.776 | 1.491 | 1.106
x2 = 0.85 | 2.079 | 1.72 | 1.244
x2 = 0.8999 | 2.51 | 2.05 | 1.442
x2 = 0.95 | 3.194 | 2.527 | 1.697

C[N+](=O)[O-] + CC(C)=O
298.15 K, 101 kPa
Conditions | viscosity [mPa·s]
x1 = 0.1326 | 0.356
x1 = 0.2566 | 0.3972
x1 = 0.3714 | 0.4352
x1 = 0.479 | 0.4701
x1 = 0.5797 | 0.5032
x1 = 0.6739 | 0.5325
x1 = 0.7631 | 0.5603
x1 = 0.8465 | 0.5855
x1 = 0.9257 | 0.6101

OCC1CC1 + CC(C)CC(C)(C)C
viscosity [mPa·s], 101 kPa
Conditions | x1 = 0.0991 | x1 = 0.1991 | x1 = 0.3007 | x1 = 0.4013 | x1 = 0.5 | x1 = 0.6004 | x1 = 0.7007 | x1 = 0.8004 | x1 = 0.9002
293.15 K | 0.535 | 0.592 | 0.676 | 0.801 | 0.97 | 1.214 | 1.561 | 2.068 | 2.803
298.15 K | 0.505 | 0.556 | 0.63 | 0.74 | 0.886 | 1.098 | 1.398 | 1.831 | 2.459
303.15 K | 0.476 | 0.522 | 0.587 | 0.684 | 0.811 | 0.997 | 1.257 | 1.632 | 2.168
308.15 K | 0.45 | 0.491 | 0.549 | 0.634 | 0.746 | 0.908 | 1.136 | 1.46 | 1.921
313.15 K | 0.425 | 0.462 | 0.514 | 0.59 | 0.688 | 0.831 | 1.029 | 1.31 | 1.709
318.15 K | 0.396 | 0.431 | 0.478 | 0.546 | 0.633 | 0.759 | 0.934 | 1.181 | 1.527
323.15 K | 0.38 | 0.411 | 0.454 | 0.514 | 0.59 | 0.701 | 0.854 | 1.071 | 1.372

C[N+](=O)[O-] + CC(C)CO
298.15 K, 101 kPa
Conditions | viscosity [mPa·s]
x1 = 0.1592 | 2.304
x1 = 0.2992 | 1.779
x1 = 0.4225 | 1.382
x1 = 0.5327 | 1.108
x1 = 0.6306 | 0.9667
x1 = 0.7193 | 0.822
x1 = 0.7993 | 0.7537
x1 = 0.8724 | 0.7066
x1 = 0.9387 | 0.6682

ClC1CCCCC1 + CC(C)CO
viscosity [mPa·s], 101.33 kPa
Conditions | x1 = 0.1018 | x1 = 0.2015 | x1 = 0.3066 | x1 = 0.4073 | x1 = 0.5034 | x1 = 0.5996 | x1 = 0.7053 | x1 = 0.8003 | x1 = 0.8949
298.15 K | 2.771 | 2.342 | 2.035 | 1.835 | 1.687 | 1.597 | 1.525 | 1.5 | 1.5
313.15 K | 1.784 | 1.555 | 1.393 | 1.284 | 1.223 | 1.181 | 1.146 | 1.132 | 1.144
